# Test results from PubChem BioAssay AID1963428 (Molecular Pharmacology Branch, DTP, NCI, 2024).
# System: 171881-019-R-J1-PDC complex spheroid growth, % test/control
# Test: Anticancer human tumor 171881-019-R-J1-PDC patient-derived invasive breast carcinoma cell line growth inhibition [Asc]
# Conditions: for IC50: curve of first compound; for viability, T/C: stronger effect = lower value
# Method in brief: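 Tumor cells were grown as multicellular spheroids with stromal HUVEC and mesenchymal stem cells and treated singly or in combination. Concentrations fell in half-log steps from the clinical Cmax, or from 10 microM where none was known.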
# 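Throughout, for viability, T/C: spheroids exposed to compounds for 7 days.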
smiles,measurement,setting,value
Cc1nc(N2CCC3(CC2)COC(C)C3N)c(CO)nc1Sc1ccnc(N)c1Cl (stereo not given) + CCN1C(C(=O)NC23CCC(C(=O)O)(CC2)CC3)C(c2cccc(Cl)c2F)C2(C(=O)Nc3cc(Cl)ccc32)C12CCCCC2,IC50,second compound 0.03 µM,> 3 µM
same,IC50,second compound 0.0949 µM,> 3 µM
same,IC50,second compound 0.3 µM,> 3 µM
same,IC50,second compound 0.949 µM,> 3 µM
same,IC50,second compound 3 µM,> 3 µM
same,"viability, T/C","second compound 0.03 µM, first compound 0.00949 µM",87.3%
same,"viability, T/C","second compound 0.03 µM, first compound 0.03 µM",101%
same,"viability, T/C","second compound 0.03 µM, first compound 0.0949 µM",153%
same,"viability, T/C","second compound 0.03 µM, first compound 0.3 µM",152%
same,"viability, T/C","second compound 0.03 µM, first compound 0.949 µM",126%
same,"viability, T/C","second compound 0.03 µM, first compound 3 µM",109%
same,"viability, T/C","second compound 0.0949 µM, first compound 0.00949 µM",80.7%
same,"viability, T/C","second compound 0.0949 µM, first compound 0.03 µM",99.1%
same,"viability, T/C","second compound 0.0949 µM, first compound 0.0949 µM",165%
same,"viability, T/C","second compound 0.0949 µM, first compound 0.3 µM",178%
same,"viability, T/C","second compound 0.0949 µM, first compound 0.949 µM",121%
same,"viability, T/C","second compound 0.0949 µM, first compound 3 µM",114%
same,"viability, T/C","second compound 0.3 µM, first compound 0.00949 µM",112%
same,"viability, T/C","second compound 0.3 µM, first compound 0.03 µM",109%
same,"viability, T/C","second compound 0.3 µM, first compound 0.0949 µM",158%
same,"viability, T/C","second compound 0.3 µM, first compound 0.3 µM",171%
same,"viability, T/C","second compound 0.3 µM, first compound 0.949 µM",141%
same,"viability, T/C","second compound 0.3 µM, first compound 3 µM",103%
same,"viability, T/C","second compound 0.949 µM, first compound 0.00949 µM",90.8%
same,"viability, T/C","second compound 0.949 µM, first compound 0.03 µM",105%
same,"viability, T/C","second compound 0.949 µM, first compound 0.0949 µM",134%
same,"viability, T/C","second compound 0.949 µM, first compound 0.3 µM",184%
same,"viability, T/C","second compound 0.949 µM, first compound 0.949 µM",134%
same,"viability, T/C","second compound 0.949 µM, first compound 3 µM",95.2%
same,"viability, T/C","second compound 3 µM, first compound 0.00949 µM",109%
same,"viability, T/C","second compound 3 µM, first compound 0.03 µM",127%
same,"viability, T/C","second compound 3 µM, first compound 0.0949 µM",175%
same,"viability, T/C","second compound 3 µM, first compound 0.3 µM",166%
same,"viability, T/C","second compound 3 µM, first compound 0.949 µM",122%
same,"viability, T/C","second compound 3 µM, first compound 3 µM",105%
